{"source": "patent US20090011410A1", "about": "“METHOD FOR TAILORING ADMINISTRATION OF DRUGS BY QUANTITATION OF MRNA” (priority 2004, published 2009)", "key": {"lymphocyte blastogenesis": {"test_system": "lymphocyte blastogenesis", "settings": "induction of lymphocyte blastogenesis, activity declined at higher doses; cited from earlier work"}, "IL-2 mRNA": {"test_system": "IL-2 mRNA", "test": "PHA-P-induced leukocyte IL-2 mRNA expression in heparinized whole blood of healthy adults", "format": "cell-based, human", "source_text": "Blood was obtained from healthy adults and from patients with psoriasis (4), aplastic anemia (1), nephrotic syndrome (1), and bone marrow transplantation (2). At the time of blood draw, one EDTA tube was sent to clinical laboratory for the measurement of leukocyte counts, and one heparin tube was stored on ice. […] Fifty μL each of blood sample was applied to three different wells of filterplates (triplicate from the beginning), and leukocytes were collected on the membrane by centrifugation at 800×g for 2 min. After washing each well with 300 μL phosphate buffered saline (PBS) once by centrifugation, the lysis buffer described above was applied to each well and incubated at 37° C. for 10 min to release mRNA from trapped leukocytes. The lysate was then transferred to oligo-(dT)-immobilized microplates (GenePlate, RNAture, Irvine, Calif.) by centrifugation at 2000× g for 5 min, and incubated at 4° C. overnight for hybridization. After washing each well with 100 μL lysis buffer 3 times followed by 150 μL wash buffer (10 mM Tris, pH 7.4, 1 mM EDTA, pH 8.0, and 0.5 M NaCl) 3 times, cDNA was synthesized in each well by adding buffer, nucleotides, a cocktail of specific primers, RNasin, and MMLV reverse transcriptase (Promega, Madison, Wis.), and incubated at 37° C. for 2 hours. […]"}}, "data": [{"substance": "phytohemagglutinin-P [PHA-P]", "values": [{"measurement": "PHA-P concentration of maximal action", "setting": "lymphocyte blastogenesis", "result": "10 to 20", "unit": "µg/mL"}, {"measurement": "PHA-P concentration from which IL-2 mRNA increased", "setting": "IL-2 mRNA; heparinized whole blood (FIG. 18)", "result": "≥ 5", "unit": "µg/mL"}, {"measurement": "PHA-P concentration over which IL-2 mRNA reached a plateau", "setting": "IL-2 mRNA; heparinized whole blood (FIG. 18, 19)", "result": "over 40 μg/mL"}]}]}
